In PubChem BioAssay (NCI):
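All cell lines were grown in 96-well plates and treated with compound for 48 hours. TGI is the concentration that stops growth completely.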

How the values were obtained:
Assay in all cases: inhibition of tumour cell growth, NCI panel, 48 h
TK-10 renal = test system: TK-10 renal
A549 NSCLC = test system: A549 NSCLC
COLO 205 colon = test system: COLO 205 colon
SK-MEL-2 melanoma = test system: SK-MEL-2 melanoma
NCI/ADR-RES ovarian = test system: NCI/ADR-RES ovarian
DU-145 prostate = test system: DU-145 prostate
UACC-257 melanoma = test system: UACC-257 melanoma
ACHN renal = test system: ACHN renal
SF-295 CNS = test system: SF-295 CNS
NCI-H522 lung = test system: NCI-H522 lung
OVCAR-8 ovarian = test system: OVCAR-8 ovarian
MDA-N = test system: MDA-N
SNB-19 CNS = test system: SNB-19 CNS
MDA-MB-435 = test system: MDA-MB-435
SF-268 CNS = test system: SF-268 CNS
M14 melanoma = test system: M14 melanoma
NCI-H460 lung = test system: NCI-H460 lung
SF-539 CNS = test system: SF-539 CNS
UACC-62 melanoma = test system: UACC-62 melanoma
OVCAR-5 ovarian = test system: OVCAR-5 ovarian
SK-OV-3 ovarian = test system: SK-OV-3 ovarian
K-562 leukemia = test system: K-562 leukemia
OVCAR-3 ovarian = test system: OVCAR-3 ovarian
IGROV1 ovarian = test system: IGROV1 ovarian
HT29 colon = test system: HT29 colon
LOX IMVI melanoma = test system: LOX IMVI melanoma
UO-31 renal = test system: UO-31 renal
U251 CNS = test system: U251 CNS
A498 renal = test system: A498 renal
CAKI-1 renal = test system: CAKI-1 renal
RPMI-8226 leukemia = test system: RPMI-8226 leukemia
HL-60(TB) leukemia = test system: HL-60(TB) leukemia
NCI-H226 lung = test system: NCI-H226 lung
MALME-3M melanoma = test system: MALME-3M melanoma
CCRF-CEM leukemia = test system: CCRF-CEM leukemia
HCC-2998 colon = test system: HCC-2998 colon
MOLT-4 leukemia = test system: MOLT-4 leukemia
MCF7 breast = test system: MCF7 breast
OVCAR-4 ovarian = test system: OVCAR-4 ovarian
MDA-MB-231 breast = test system: MDA-MB-231 breast
786-0 renal = test system: 786-0 renal
SR leukemia = test system: SR leukemia
PC-3 prostate = test system: PC-3 prostate
HCT-15 colon = test system: HCT-15 colon
RXF 393 renal = test system: RXF 393 renal
SN12C renal = test system: SN12C renal
BT-549 breast = test system: BT-549 breast
SW-620 colon = test system: SW-620 colon
SK-MEL-5 melanoma = test system: SK-MEL-5 melanoma
EKVX NSCLC = test system: EKVX NSCLC
T-47D breast = test system: T-47D breast
SK-MEL-28 melanoma = test system: SK-MEL-28 melanoma
KM12 colon = test system: KM12 colon
HCT-116 colon = test system: HCT-116 colon
NCI-H23 lung = test system: NCI-H23 lung
HOP-92 NSCLC = test system: HOP-92 NSCLC
HOP-62 NSCLC = test system: HOP-62 NSCLC

SMILES: COc1ccc(-c2nc3cc(F)ccc3s2)cc1O
- TGI (TK-10 renal): 70 µM
- TGI (A549 NSCLC): > 100 µM
- TGI (COLO 205 colon): 94.4 µM
- TGI (SK-MEL-2 melanoma): 78 µM
- TGI (NCI/ADR-RES ovarian): > 100 µM
- TGI (DU-145 prostate): > 100 µM
- TGI (UACC-257 melanoma): 61.8 µM
- TGI (ACHN renal): > 100 µM
- TGI (SF-295 CNS): 49 µM
- TGI (NCI-H522 lung): 42.1 µM
- TGI (OVCAR-8 ovarian): > 100 µM
- TGI (MDA-N): > 100 µM
- TGI (SNB-19 CNS): > 100 µM
- TGI (MDA-MB-435): > 100 µM
- TGI (SF-268 CNS): > 100 µM
- TGI (M14 melanoma): > 100 µM
- TGI (NCI-H460 lung): > 100 µM
- TGI (SF-539 CNS): > 100 µM
- TGI (UACC-62 melanoma): > 100 µM
- TGI (OVCAR-5 ovarian): > 100 µM
- TGI (SK-OV-3 ovarian): > 100 µM
- TGI (K-562 leukemia): > 100 µM
- TGI (OVCAR-3 ovarian): > 100 µM
- TGI (IGROV1 ovarian): 81.3 µM
- TGI (HT29 colon): > 100 µM
- TGI (LOX IMVI melanoma): 79.3 µM
- TGI (UO-31 renal): > 100 µM
- TGI (U251 CNS): > 100 µM
- TGI (A498 renal): 66.3 µM
- TGI (CAKI-1 renal): 64 µM
- TGI (RPMI-8226 leukemia): 77.1 µM
- TGI (HL-60(TB) leukemia): 66.1 µM
- TGI (NCI-H226 lung): > 100 µM
- TGI (MALME-3M melanoma): > 100 µM
- TGI (CCRF-CEM leukemia): > 100 µM
- TGI (HCC-2998 colon): 12.7 µM
- TGI (MOLT-4 leukemia): > 100 µM
- TGI (MCF7 breast): > 100 µM
- TGI (OVCAR-4 ovarian): > 100 µM
- TGI (MDA-MB-231 breast): > 100 µM
- TGI (786-0 renal): 55.1 µM
- TGI (SR leukemia): 47.7 µM
- TGI (PC-3 prostate): > 100 µM
- TGI (HCT-15 colon): > 100 µM
- TGI (RXF 393 renal): > 100 µM
- TGI (SN12C renal): > 100 µM
- TGI (BT-549 breast): 54.1 µM
- TGI (SW-620 colon): > 100 µM
- TGI (SK-MEL-5 melanoma): 59 µM
- TGI (EKVX NSCLC): 60.8 µM
- TGI (T-47D breast): 46.9 µM
- TGI (SK-MEL-28 melanoma): > 100 µM
- TGI (KM12 colon): > 100 µM
- TGI (HCT-116 colon): > 100 µM
- TGI (NCI-H23 lung): > 100 µM

SMILES: O=c1[nH]cnc2c1cnn2Cc1cn(COCC(O)CO)nn1 (stereo not drawn)
- TGI (TK-10 renal): > 100 µM
- TGI (A549 NSCLC): > 100 µM
- TGI (HOP-92 NSCLC): > 100 µM
- TGI (COLO 205 colon): > 100 µM
- TGI (SK-MEL-2 melanoma): > 100 µM
- TGI (NCI/ADR-RES ovarian): > 100 µM
- TGI (DU-145 prostate): > 100 µM
- TGI (UACC-257 melanoma): > 100 µM
- TGI (ACHN renal): > 100 µM
- TGI (SF-295 CNS): > 100 µM
- TGI (NCI-H522 lung): 62.7 µM
- TGI (OVCAR-8 ovarian): > 100 µM
- TGI (MDA-N): > 100 µM
- TGI (SNB-19 CNS): > 100 µM
- TGI (MDA-MB-435): > 100 µM
- TGI (M14 melanoma): > 100 µM
- TGI (SF-539 CNS): > 100 µM
- TGI (UACC-62 melanoma): > 100 µM
- TGI (OVCAR-5 ovarian): > 100 µM
- TGI (SK-OV-3 ovarian): > 100 µM
- TGI (K-562 leukemia): > 100 µM
- TGI (OVCAR-3 ovarian): > 100 µM
- TGI (IGROV1 ovarian): > 100 µM
- TGI (HT29 colon): > 100 µM
- TGI (HOP-62 NSCLC): > 100 µM
- TGI (LOX IMVI melanoma): > 100 µM
- TGI (UO-31 renal): > 100 µM
- TGI (U251 CNS): > 100 µM
- TGI (A498 renal): > 100 µM
- TGI (CAKI-1 renal): > 100 µM
- TGI (RPMI-8226 leukemia): > 100 µM
- TGI (HL-60(TB) leukemia): > 100 µM
- TGI (NCI-H226 lung): > 100 µM
- TGI (CCRF-CEM leukemia): > 100 µM
- TGI (HCC-2998 colon): > 100 µM
- TGI (MOLT-4 leukemia): > 100 µM
- TGI (MCF7 breast): > 100 µM
- TGI (OVCAR-4 ovarian): > 100 µM
- TGI (MDA-MB-231 breast): > 100 µM
- TGI (786-0 renal): > 100 µM
- TGI (SR leukemia): > 100 µM
- TGI (PC-3 prostate): > 100 µM
- TGI (HCT-15 colon): > 100 µM
- TGI (SN12C renal): > 100 µM
- TGI (BT-549 breast): > 100 µM
- TGI (SW-620 colon): > 100 µM
- TGI (SK-MEL-5 melanoma): > 100 µM
- TGI (EKVX NSCLC): > 100 µM
- TGI (T-47D breast): > 100 µM
- TGI (SK-MEL-28 melanoma): > 100 µM
- TGI (KM12 colon): > 100 µM
- TGI (HCT-116 colon): > 100 µM
- TGI (NCI-H23 lung): > 100 µM
